Experimental data as given in patent US20050176806A1, “Use of substituted cyanopyrrolidines and combination preparations containing them for treating hyperlipidemia and associated diseases” (priority 2002, published 2005).

System: patients with a diagnosis of Type 2 diabetes mellitus
Experiment: Evaluation of the Effects of Compound IC on Human Lipid Profiles
Type: in vivo
Conditions: compound IC 100 mg or 200 mg OD for four weeks, compared to placebo
Excerpt: Evaluation of the Effects of Compound IC on Human Lipid Profiles Sixty (60) patients comprised of male and non-fertile female patients aged at least 30 years with a diagnosis of Type 2 diabetes mellitus of at least three months duration, who have been treated with diet alone for at least one month prior to study entry were selected. The study was broken down into two periods. Period 1 was the four weeks prior to the beginning of the study, with period 2 being four weeks and being the actual study period when patients were treated with compound IC. Accordingly, study entry was Week −4 and the endpoint was after the fourth week of Period 2. Patients were randomized in a ratio of 1:1:1 as follows: compound IC at 200 mg once a day (OD), compound IC at 100 mg OD and placebo. The patients received compound IC 30 minutes before breakfast. There were 5 test days in the study. Patients attended as outpatients for fasting blood sampling at Week −4 (study entry), Week −2 and Week 2 and as inpatients for 24 hours on Week 0 (=baseline) and Week 4 (=endpoint). On the two inpatient test days, the total caloric intake of breakfast, lunch and dinner was standardized and standard test meals were administered in place of breakfast and dinner. Triglycerides, total cholesterol and lipid fractions (LDL, VLDL and HDL) were measured during 24 hours following the breakfast standard meal. […] On the two inpatient test days, patients fasted for at least 7 hours, i.e., no food or drinks (except water) after midnight on the day before the scheduled visit, and attended the clinic at 07.00 h. On each of the two test days, the total caloric intake during 24 hours was standardized and standard test meals were administered for breakfast (about 08.00 h) and dinner (about 18.00 h). Lunch was taken at approximately 13.00 h. On Day 1, no compound IC was administered but at Week 4, patients took compound IC as normal, 30 minutes before the standard breakfast. Triglycerides, total cholesterol and lipid fractions (LDL, VLDL and HDL) were evaluated. Triglycerides, total cholesterol and HDL were measured and LDL and VLDL calculated according to the method of Friedewald et al., “Estimation of the Concentration of Low-Density Lipoprotein Cholesterol Without the Use of the Preparative Centrifuge”, Clin. Chem., Vol. 18, No. 6, pp. 499-502 (1972).

[1] = calculated according to Friedewald et al.
[2] = measured during 24 hours following breakfast standard meal

N#C[C@@H]1CCCN1C(=O)CNC12CC3CC(CC(O)(C3)C1)C2 [compound IC]
markedly lowered: levels of LDL [1] | levels of VLDL [1] | levels of total cholesterol [2] | levels of triglyceride [2]
